Patent publication US20110262451A1, “MODULATORS OF ISOVALERYL-COENZYME A DEHYDROGENASE IN THE TREATMENT OF ACNE, OF SEBORRHOEIC DERMATITIS OR OF HYPERSEBORRHOEA” (priority 2008, published 2011)

Tests used:
IVD = test: qRT-PCR expression of IVD in rat sebaceous gland (epidermal split) after topical PPARgamma agonist; assay type: in vivo; conditions: topical 1% in acetone, T = 96 h, female FUZZY rat, relative induction versus carrier group, standardized to 18S
Protocol: (§1) • Strain: Ico: Hsd: FUZZY-fz • Gender: female • Age: 10 weeks Number per batch: 40 (8 animals per group) Treatment: Route of administration: topical • Compound/batch: PPARgamma agonist (rosiglitazone) • Doses: 1% • Carrier: acetone (001) • Duration 96 hours Method of evaluation: The animals are weighed at the beginning and at the end of the study. Skin biopsies are taken (6 samples of skin excised per rat) in order to analyze the expression of the genes (RNA extraction, reverse transcriptas and real-time PCR). The samples are stored overnight at 4° C. before incubation in 1M sodium bromide (NaBr) for 2 hours at 37° C. After incubation, the samples are separated into epidermis or dermis. The epidermal samples are stored at […] Under these conditions, the sebaceous glands are in the epidermal split. PCRs are carried out, beginning with the cDNAs originating from the epidermal splits containing sebaceous glands from control rats or rats treated with the PPARγ agonist: the mRNA is extracted using a column and quantified. The quality of the mRNAs is measured and is represented by the 18S/28S ratio. The results are standardized with respect to 18S expressed as relative induction versus untreated animals (carrier group). The statistical analysis is obtained using internal software based on a modified Monte Carlo statistical analysis.

PPARγ = test: qRT-PCR expression of PPARγ in rat sebaceous gland (epidermal split) after topical PPARgamma agonist; assay type: in vivo; conditions: topical 1% in acetone, T = 96 h, female FUZZY rat, relative induction versus carrier group, standardized to 18S
Protocol: as §1

[1] = test system: isovaleryl-coenzyme A dehydrogenase; conditions: cited from earlier work

Row | SMILES | Induction factor (IVD) (IVD) | Induction factor (PPARγ) (PPARγ) | Inhibition of isovaleryl-coenzyme A dehydrogenase [1]
1 | COCCOCOc1ccc2cc(C(=O)N(C)Cc3cccc(-c4ccc(CC5SC(=O)NC5=O)cc4)c3)ccc2c1 (stereo not drawn) [PPARgamma agonist, 6-(2-methoxyethoxy-methoxy)naphthalene-2-carboxylic acid [4′-(2,4-dioxothiazolidin-5-ylmethyl)biphenyl-3-ylmethyl]methyl-amide] | 0.11 | 0.11 | –
2 | C=C1C[C@@H]1C[C@H](N)C(=O)O [hypoglycine A] | – | – | inhibitor
